# Source: ChEMBL document CHEMBL1201862, “PubChem BioAssay data set” (2004)
# The source made the active and inactive calls.
# Columns and labels:
# [1] = target: Cytochrome P450 2D6 (Homo sapiens, UniProt P10635);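 also: CYP2D6 member of a cytochrome P450 panel assay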
# [2] = target: Cytochrome P450 3A4 (Homo sapiens, UniProt P08684);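 also: CYP3A4 tested as one member of a cytochrome P450 panel screen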
# [3] = HEp-2 cell cytotoxicity, dose response, cytotoxicity control for RSV inhibitor project, HTS (AID 2410); type: functional; conditions: human respiratory syncytial virus
# [4] = test system: Streptococcus sp. 'group A'; assay: growth inhibition of control SK(-) GAS strain, dose response, counter-screen for streptokinase expression inhibitor project, luminescence, kanamycin, BacTiterGlo, confirmation (AID 1900); type: functional, organism-based
# [5] = target: T1, Streptokinase A (Streptococcus pyogenes serotype M1, UniProt P10520); assay: S. pyogenes streptokinase expression inhibitors, potency, dose response, plasminogen activation absorbance, OD405 (AID 1914); type: functional, Streptococcus pyogenes M1 GAS;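 also: secreted streptokinase activity via plasminogen activation per viability signal from cell pellet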
# T1 sequence (P10520 whole entry): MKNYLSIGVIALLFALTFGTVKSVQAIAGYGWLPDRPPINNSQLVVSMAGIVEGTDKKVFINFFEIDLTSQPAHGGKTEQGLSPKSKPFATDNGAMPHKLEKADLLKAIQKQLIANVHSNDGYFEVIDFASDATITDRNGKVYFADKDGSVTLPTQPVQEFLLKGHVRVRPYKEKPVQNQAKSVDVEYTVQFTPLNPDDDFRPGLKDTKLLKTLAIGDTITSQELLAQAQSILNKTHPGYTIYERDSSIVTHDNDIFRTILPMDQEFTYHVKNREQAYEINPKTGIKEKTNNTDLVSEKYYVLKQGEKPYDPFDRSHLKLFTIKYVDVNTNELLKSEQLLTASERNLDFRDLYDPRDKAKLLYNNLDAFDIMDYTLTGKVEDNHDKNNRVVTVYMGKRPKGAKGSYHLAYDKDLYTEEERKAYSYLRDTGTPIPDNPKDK
# [6] = test system: Streptococcus; assay: Group A Streptococcus viability loss, dose response, counter-screen for streptokinase expression inhibitor project, luminescence, BacTiterGlo (AID 1915); type: functional, organism-based;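 also: potency for reduction of bacterial viability or growth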
# [7] = target: T2, Rac GTPase-activating protein 1 (Homo sapiens, UniProt Q9H0H5); assay: MgcRacGAP GTPase-activating activity inhibitors, confirmation, biochemical, ADP Hunter fluorescence, primary and confirmatory (AID 624330); type: functional
# T2 sequence (Q9H0H5 whole entry): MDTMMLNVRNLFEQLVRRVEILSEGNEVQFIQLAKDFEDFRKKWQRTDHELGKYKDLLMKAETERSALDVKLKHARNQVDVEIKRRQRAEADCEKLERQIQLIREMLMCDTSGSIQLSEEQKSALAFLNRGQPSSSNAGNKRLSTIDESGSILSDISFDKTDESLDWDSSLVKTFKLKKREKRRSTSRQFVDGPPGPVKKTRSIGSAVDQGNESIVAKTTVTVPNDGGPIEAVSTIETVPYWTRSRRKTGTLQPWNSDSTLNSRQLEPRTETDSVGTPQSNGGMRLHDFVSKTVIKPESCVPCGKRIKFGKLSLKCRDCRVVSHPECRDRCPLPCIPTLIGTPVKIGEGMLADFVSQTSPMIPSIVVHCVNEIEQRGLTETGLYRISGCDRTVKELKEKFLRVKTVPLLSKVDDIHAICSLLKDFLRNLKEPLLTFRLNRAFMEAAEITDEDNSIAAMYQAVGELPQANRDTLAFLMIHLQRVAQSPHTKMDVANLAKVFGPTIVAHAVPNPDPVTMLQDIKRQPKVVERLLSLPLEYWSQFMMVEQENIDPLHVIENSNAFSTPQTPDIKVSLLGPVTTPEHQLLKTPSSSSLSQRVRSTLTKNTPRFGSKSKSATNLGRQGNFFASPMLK
# [8] = target: Cytochrome P450 2C19 (Homo sapiens, UniProt P33261); assay: Cytochrome panel assay with activity outcomes. Panel member name: p450-cyp2c19 Compounds with AC50 equal or less than 10 uM are considered active; type: functional; conditions: read-out: AC50
# Sequence of Cytochrome P450 2C19 (P33261 whole entry): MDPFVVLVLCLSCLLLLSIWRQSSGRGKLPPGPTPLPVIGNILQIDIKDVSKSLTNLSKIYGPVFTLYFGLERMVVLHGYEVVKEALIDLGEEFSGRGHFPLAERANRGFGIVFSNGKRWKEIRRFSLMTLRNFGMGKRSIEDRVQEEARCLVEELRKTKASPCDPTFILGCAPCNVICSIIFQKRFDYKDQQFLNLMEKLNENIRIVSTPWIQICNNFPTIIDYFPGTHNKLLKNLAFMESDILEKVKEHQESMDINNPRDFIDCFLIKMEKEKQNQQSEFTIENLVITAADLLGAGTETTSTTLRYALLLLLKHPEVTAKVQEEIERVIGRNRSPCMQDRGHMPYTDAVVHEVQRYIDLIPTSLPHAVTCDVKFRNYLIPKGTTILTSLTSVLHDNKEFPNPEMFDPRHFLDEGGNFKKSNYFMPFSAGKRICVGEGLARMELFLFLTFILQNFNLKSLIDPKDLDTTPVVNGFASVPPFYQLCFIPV
# [9] = target: Cytochrome P450 2C9 (Homo sapiens, UniProt P11712)
# Sequence of Cytochrome P450 2C9 (P11712 whole entry): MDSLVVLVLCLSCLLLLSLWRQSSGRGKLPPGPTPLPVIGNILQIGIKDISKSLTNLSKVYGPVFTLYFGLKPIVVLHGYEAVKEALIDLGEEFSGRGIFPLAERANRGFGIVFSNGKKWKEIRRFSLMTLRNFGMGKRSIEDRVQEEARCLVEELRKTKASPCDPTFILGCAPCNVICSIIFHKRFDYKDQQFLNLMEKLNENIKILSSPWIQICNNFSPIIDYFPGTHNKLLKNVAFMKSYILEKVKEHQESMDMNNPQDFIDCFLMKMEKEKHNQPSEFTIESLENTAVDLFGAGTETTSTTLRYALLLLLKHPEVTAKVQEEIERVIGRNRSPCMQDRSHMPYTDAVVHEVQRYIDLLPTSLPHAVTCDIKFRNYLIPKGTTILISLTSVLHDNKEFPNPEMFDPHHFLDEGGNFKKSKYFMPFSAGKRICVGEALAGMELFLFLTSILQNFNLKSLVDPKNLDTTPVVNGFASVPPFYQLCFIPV
# [10] = inhibitors of intracellular T. cruzi replication, confirmation, NIH3T3 host cells, beta-gal luminescence (AID 2044); type: functional, cell-based;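 also: intracellular parasites grown in NIH/3T3 mouse fibroblasts as host cells; luminescent beta-galactosidase reporter signal from transgenic T. cruzi replicating inside host cells; inhibitors lower the luminescence signal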
# [11] = cytotoxicity toward NIH3T3 fibroblasts, dose response, counter-screen, cell-based, ATP luminescence, mouse fibroblasts (AID 2010); type: functional;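 also: cells exposed to compound for about 90 hours before reading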
# [12] = target: T3, Replicative DNA helicase DnaB (Mycobacterium tuberculosis, UniProt P9WMR3); assay: DnaB intein splicing inhibitors, dose response, biochemical, cell-free fluorescence (AID 449749); type: functional
# T3 sequence (P9WMR3 whole entry): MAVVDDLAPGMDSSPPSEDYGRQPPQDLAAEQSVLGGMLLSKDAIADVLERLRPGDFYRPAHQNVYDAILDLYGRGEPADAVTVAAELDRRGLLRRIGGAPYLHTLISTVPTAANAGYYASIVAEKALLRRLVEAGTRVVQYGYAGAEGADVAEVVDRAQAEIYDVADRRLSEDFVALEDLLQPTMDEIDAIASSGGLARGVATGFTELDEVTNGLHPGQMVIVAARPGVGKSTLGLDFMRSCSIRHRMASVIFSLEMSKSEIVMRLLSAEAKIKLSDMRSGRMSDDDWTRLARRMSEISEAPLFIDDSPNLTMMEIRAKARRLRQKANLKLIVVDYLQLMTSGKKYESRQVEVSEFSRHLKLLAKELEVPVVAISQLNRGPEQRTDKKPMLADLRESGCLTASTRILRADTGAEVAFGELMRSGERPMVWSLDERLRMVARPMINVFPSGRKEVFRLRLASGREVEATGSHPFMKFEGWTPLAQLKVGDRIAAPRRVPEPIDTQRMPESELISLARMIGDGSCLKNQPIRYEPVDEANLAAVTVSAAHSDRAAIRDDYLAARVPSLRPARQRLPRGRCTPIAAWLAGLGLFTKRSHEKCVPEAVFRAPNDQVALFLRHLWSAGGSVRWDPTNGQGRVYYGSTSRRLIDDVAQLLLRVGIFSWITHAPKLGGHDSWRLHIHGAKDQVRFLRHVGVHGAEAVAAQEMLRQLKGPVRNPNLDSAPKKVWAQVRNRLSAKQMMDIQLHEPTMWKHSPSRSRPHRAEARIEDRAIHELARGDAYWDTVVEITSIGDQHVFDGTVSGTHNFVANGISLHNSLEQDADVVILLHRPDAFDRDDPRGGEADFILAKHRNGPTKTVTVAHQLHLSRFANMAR
# [13] = target: T4, Protein RecA (Mycobacterium tuberculosis, UniProt P9WHJ3); assay: Fluorescence Cell-Free Homogeneous Dose Retest to Identify Inhibitors of RecA-Intein Splicing Activity. [Related pubchem assays (depositor defined):AID2097, AID2223, AID489010, AID492950]; type: functional
# T4 sequence (P9WHJ3 whole entry): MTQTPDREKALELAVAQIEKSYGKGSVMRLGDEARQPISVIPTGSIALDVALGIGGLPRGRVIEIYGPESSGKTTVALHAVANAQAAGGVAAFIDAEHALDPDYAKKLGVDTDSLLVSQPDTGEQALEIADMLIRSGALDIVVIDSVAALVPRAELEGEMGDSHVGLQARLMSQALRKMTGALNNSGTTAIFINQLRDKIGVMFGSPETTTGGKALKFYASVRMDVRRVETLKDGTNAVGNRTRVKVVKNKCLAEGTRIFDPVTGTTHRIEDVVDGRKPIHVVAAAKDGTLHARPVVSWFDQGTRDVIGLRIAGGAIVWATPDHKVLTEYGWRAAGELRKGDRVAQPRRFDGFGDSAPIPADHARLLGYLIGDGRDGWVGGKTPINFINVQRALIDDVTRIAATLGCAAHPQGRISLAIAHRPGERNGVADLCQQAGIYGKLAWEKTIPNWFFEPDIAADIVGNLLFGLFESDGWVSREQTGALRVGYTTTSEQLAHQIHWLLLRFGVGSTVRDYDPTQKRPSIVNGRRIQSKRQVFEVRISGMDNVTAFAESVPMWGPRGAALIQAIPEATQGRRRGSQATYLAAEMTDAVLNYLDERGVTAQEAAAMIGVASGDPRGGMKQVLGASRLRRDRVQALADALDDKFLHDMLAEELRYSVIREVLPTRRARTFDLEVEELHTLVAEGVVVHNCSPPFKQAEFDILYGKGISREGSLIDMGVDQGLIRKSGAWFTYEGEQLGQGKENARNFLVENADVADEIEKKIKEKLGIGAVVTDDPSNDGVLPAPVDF
# Sequence of Cytochrome P450 2D6 (P10635 whole entry): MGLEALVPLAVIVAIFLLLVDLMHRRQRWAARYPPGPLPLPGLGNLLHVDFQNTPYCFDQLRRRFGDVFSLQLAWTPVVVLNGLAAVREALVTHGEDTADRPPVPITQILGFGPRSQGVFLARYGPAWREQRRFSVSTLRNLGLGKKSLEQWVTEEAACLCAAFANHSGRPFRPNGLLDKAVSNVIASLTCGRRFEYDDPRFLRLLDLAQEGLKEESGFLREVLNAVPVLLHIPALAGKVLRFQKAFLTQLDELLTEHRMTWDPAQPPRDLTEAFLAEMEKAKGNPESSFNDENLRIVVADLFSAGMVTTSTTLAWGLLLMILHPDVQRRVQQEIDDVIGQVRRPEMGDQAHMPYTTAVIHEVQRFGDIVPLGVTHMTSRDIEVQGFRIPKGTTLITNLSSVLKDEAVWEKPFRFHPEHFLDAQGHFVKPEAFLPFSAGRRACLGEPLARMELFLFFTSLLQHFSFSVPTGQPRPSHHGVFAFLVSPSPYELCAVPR
# Sequence of Cytochrome P450 3A4 (P08684 whole entry): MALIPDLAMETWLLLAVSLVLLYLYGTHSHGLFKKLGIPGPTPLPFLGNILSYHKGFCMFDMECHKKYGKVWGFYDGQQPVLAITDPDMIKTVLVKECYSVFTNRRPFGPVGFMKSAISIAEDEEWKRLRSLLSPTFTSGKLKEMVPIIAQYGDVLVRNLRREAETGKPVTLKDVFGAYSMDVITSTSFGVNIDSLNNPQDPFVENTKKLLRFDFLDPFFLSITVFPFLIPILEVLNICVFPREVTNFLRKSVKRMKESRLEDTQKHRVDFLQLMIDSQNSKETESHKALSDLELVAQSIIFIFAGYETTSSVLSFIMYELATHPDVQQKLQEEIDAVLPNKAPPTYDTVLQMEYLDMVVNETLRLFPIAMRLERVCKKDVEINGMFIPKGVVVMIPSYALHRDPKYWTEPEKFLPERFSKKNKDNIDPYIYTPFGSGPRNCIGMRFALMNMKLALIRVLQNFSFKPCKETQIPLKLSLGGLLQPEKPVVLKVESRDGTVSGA
compound,measurement,setting,value
COc1ccccc1-c1nc(NCCN2CCOCC2)c2ccccc2n1,AC50,[1],31.6 µM (inconclusive)
same,AC50,[2],31.6 µM (inconclusive)
O=C(Cc1cccs1)Nc1cccc(-c2nnc(-c3ccco3)o2)c1,CC50,[3],> 12.5 µM (active)
O=C(CSc1nnc(-c2ccccn2)n1Cc1ccco1)c1ccc(-c2ccccc2)cc1,CC50,[3],34.3 µM (active)
Brc1ccc(-c2cn3c(n2)CCc2ccc4cccnc4c2-3)cc1,EC50,[4],4.51 µM (active)
same,EC50,[5],23.8 µM (active)
same,EC50,[6],> 150 µM (not active)
O=C(Nc1cc(Cl)cc(Cl)c1)Nc1cnccn1,EC50,[4],7.66 µM (active)
same,EC50,[5],> 150 µM (not active)
same,EC50,[6],> 150 µM (not active)
COc1cc(/C=N/NC(=O)c2nc(-c3ccccc3)n(-c3ccccc3)n2)ccc1O,IC50,[7],38.7 µM (active)
Cc1ccccc1-c1nccc(Nc2ccc(F)cc2)n1,AC50,[1],20 µM (inconclusive)
Cc1ccc2nc(Nc3ccc(Cl)cc3)c3nncn3c2c1,CC50,[3],34.4 µM (active)
Oc1ccccc1-[n+]1c(-c2ccccc2)cc(-c2ccccc2)cc1-c1ccccc1.[O-][Cl+3]([O-])([O-])[O-],CC50,[3],11.7 µM (active)
CN(C)c1ccc(-c2ccc3ncnc(NCc4ccccc4)c3c2)cc1,AC50,[1],12.6 µM (inconclusive)
OCCCn1c(C(CO)Nc2nc(-c3ccc(Cl)cc3)cs2)nc2ccccc21 (stereo not drawn),CC50,[3],15.5 µM (active)
CCC1=NN2C(=N)/C(=C/c3ccc(OS(=O)(=O)c4ccccc4)cc3)C(=O)N=C2S1,CC50,[3],> 50 µM (active)
O=C(Nc1cccc(F)c1)N1CC2(CCN(S(=O)(=O)c3ccccc3)CC2)C1,AC50,[1],39.8 µM (inconclusive)
same,AC50,[8],15.8 µM (inconclusive)
same,AC50,[9],20 µM (inconclusive)
CCOc1cc(/C=N/NC(=O)C(=O)NCc2cccnc2)ccc1O,IC50,[7],54.5 µM (active)
CN1c2ccccc2C(C)(C)[C@]12C=Cc1cc(O)ccc1O2,CC50,[3],7.32 µM (active)
Nc1ccc(N2CCN(c3ccc(Cl)c(Cl)c3)CC2)cc1,IC50,[7],18.1 µM (active)
O=C(c1cc(S(=O)(=O)N2CCOCC2)ccc1F)N(CCc1ccccc1)Cc1ccccc1,CC50,[3],29.8 µM (active)
C[C@@H]1CC[C@@]2(OC1)O[C@H]1C[C@H]3[C@@H]4CC=C5C[C@@H](O)[C@H](O)C[C@]5(C)C4CC[C@]3(C)[C@H]1[C@@H]2C (stereo partly drawn),EC50,[4],4.77 µM (active)
same,EC50,[5],> 150 µM (not active)
same,EC50,[6],16.4 µM (active)
Cc1ccc2nc(-c3ccc(NS(=O)(=O)c4ccc(F)c(F)c4)cc3)sc2c1,EC50,[4],2.65 µM (active)
same,EC50,[5],5.1 µM (active)
same,EC50,[6],5.92 µM (active)
O=C(NC(=S)Nc1ccc(Br)cn1)c1cncc(Br)c1,AC50,[1],0.631 µM (inconclusive)
same,AC50,[8],35.5 µM (inconclusive)
same,AC50,[9],0.447 µM (inconclusive)
COc1cccc(/C=N/NC(=O)c2cc(-c3cccn3C)[nH]n2)c1,AC50,[1],0.00794 µM (inconclusive)
Cc1ccc(C2=C(Cl)C(=O)C(c3ccc(C)cc3)=C(Cl)C2=O)cc1,AC50,[1],3.98 µM (inconclusive)
same,AC50,[8],3.98 µM (inconclusive)
CC1=NN(C(=Nc2ccc(C(C)(C)C)cc2)Nc2nnc(C)s2)[C@H](c2ccc(C)cc2)S1,EC50,[4],8.28 µM (active)
same,EC50,[10],1.85 µM (active)
same,EC50,[5],13.9 µM (active)
same,EC50,[6],> 150 µM (not active)
same,EC50,[11],> 60 µM (not active)
CC(=O)NCCn1c(SCC(=O)NCc2ccco2)nc2ccccc2c1=O,AC50,[1],0.0447 µM (inconclusive)
same,AC50,[12],7.22 µM (active)
same,AC50,[9],25.1 µM (inconclusive)
same,EC50,[13],9.17 µM (active)
O=C(Nc1cccc(-c2nnc(-c3ccccc3)o2)c1)c1ccc(Br)o1,EC50,[4],9.53 µM (active)
same,EC50,[5],> 150 µM (not active)
same,EC50,[6],14.2 µM (active)
COC(=O)CSc1nnc(-c2cnccn2)n1C,EC50,[4],> 150 µM (not active)
same,EC50,[5],> 150 µM (not active)
same,EC50,[6],> 150 µM (not active)
Clc1ccccc1-c1nc(Nc2ccncc2)c2ccccc2n1,AC50,[1],39.8 µM (inconclusive)
same,AC50,[9],1.58 µM (inconclusive)
Cc1cc2oc(=O)cc(CN(C)Cc3ccccc3Cl)c2cc1C,EC50,[4],20.8 µM (active)
same,EC50,[5],14.4 µM (active)
same,EC50,[6],> 150 µM (not active)
COc1ccc(C2CC(c3ccccc3)=NN2c2ccc(S(N)(=O)=O)cc2)cc1OC (stereo not drawn),CC50,[3],24.2 µM (active)
COc1ccccc1NS(=O)(=O)c1cccc(C(=O)OCC(=O)Nc2cc(C)on2)c1,AC50,[1],31.6 µM (inconclusive)
same,AC50,[9],12.6 µM (inconclusive)
CCOC(=O)C1=C(O)c2ccccc2C(=O)/C1=C\c1ccc(C)cc1,CC50,[3],31.5 µM (active)
COCCn1c(N)c(C(=O)NS(=O)(=O)c2ccc(C)cc2)c(=O)[nH]c1=O,EC50,[4],> 150 µM (not active)
same,EC50,[5],> 150 µM (not active)
same,EC50,[6],> 150 µM (not active)
